These results are taken from US20120046329A1, “MODULATORS OF NOD1 AND NOD2 SIGNALING, METHODS OF IDENTIFYING MODULATORS OF NOD1 AND NOD2 SIGNALING, AND USES THEREOF” (Sanford-Burnham Medical Research Institute, priority 2010, published 2012).

Like-named read-outs stand apart in the source and are kept apart here.

The subject of experiment [1] is TNF-α induced NF-κB. Description: TNF-α-induced NF-κB luciferase reporter counterscreen, HEK293T. The class given is cell-based, human. As to conditions: Homo sapiens, HEK-293T.
Experiment [2] has as its target NOD2 (Homo sapiens, UniProt Q9HC29). Description: NOD2 NF-κB luciferase reporter assay, HEK293T cells over-expressing NOD2. The arrangement: expressed in transfected cells; host or cells: HEK293T NF-κB-luciferase cells, lentiviral transduction, sorted by EGFP. The class given is cell-based. Background: Reporter assays use an easily measured gene product as a stand-in for the process of interest.

Experiment [3] addresses T1, NOD1 (Homo sapiens, UniProt Q9Y239).
T1 sequence (Q9Y239 1-953): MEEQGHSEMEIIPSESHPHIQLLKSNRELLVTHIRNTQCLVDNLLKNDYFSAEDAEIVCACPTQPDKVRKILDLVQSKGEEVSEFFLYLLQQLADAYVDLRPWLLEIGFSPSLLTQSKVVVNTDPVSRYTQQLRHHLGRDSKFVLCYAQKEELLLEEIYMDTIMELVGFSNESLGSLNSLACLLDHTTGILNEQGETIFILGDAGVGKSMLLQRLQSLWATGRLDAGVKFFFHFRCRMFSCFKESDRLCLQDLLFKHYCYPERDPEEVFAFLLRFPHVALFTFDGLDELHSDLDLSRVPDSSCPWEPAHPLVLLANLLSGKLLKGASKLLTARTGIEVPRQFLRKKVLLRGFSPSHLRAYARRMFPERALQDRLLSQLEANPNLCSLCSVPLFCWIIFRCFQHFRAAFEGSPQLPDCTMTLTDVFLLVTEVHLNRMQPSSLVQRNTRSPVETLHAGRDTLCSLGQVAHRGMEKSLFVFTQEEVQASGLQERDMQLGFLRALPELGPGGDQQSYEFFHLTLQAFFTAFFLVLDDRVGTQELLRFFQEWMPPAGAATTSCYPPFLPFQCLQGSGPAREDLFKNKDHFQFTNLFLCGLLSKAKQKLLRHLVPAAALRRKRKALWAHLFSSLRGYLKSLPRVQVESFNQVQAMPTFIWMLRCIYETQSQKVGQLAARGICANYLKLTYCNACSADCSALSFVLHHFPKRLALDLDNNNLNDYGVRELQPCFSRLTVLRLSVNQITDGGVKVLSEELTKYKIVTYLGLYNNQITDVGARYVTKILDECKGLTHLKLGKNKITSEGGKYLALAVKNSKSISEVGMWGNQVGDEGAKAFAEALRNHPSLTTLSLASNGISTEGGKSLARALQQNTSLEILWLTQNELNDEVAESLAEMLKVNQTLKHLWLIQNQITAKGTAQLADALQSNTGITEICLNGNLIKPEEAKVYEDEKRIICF
As to the kind of experiment: NOD1 NF-κB luciferase reporter assay, γ-tri-DAP-stimulated HEK293T cells. As to conditions: for Effect on NOD-driven NF-κB reporter gene activity: data not shown.

The mark [4] stands for this setting: TNF-α-stimulated NF-κB luciferase, HEK293T, read-out: TNF-α IC50.

Sequence of NOD2 (Q9HC29 whole entry): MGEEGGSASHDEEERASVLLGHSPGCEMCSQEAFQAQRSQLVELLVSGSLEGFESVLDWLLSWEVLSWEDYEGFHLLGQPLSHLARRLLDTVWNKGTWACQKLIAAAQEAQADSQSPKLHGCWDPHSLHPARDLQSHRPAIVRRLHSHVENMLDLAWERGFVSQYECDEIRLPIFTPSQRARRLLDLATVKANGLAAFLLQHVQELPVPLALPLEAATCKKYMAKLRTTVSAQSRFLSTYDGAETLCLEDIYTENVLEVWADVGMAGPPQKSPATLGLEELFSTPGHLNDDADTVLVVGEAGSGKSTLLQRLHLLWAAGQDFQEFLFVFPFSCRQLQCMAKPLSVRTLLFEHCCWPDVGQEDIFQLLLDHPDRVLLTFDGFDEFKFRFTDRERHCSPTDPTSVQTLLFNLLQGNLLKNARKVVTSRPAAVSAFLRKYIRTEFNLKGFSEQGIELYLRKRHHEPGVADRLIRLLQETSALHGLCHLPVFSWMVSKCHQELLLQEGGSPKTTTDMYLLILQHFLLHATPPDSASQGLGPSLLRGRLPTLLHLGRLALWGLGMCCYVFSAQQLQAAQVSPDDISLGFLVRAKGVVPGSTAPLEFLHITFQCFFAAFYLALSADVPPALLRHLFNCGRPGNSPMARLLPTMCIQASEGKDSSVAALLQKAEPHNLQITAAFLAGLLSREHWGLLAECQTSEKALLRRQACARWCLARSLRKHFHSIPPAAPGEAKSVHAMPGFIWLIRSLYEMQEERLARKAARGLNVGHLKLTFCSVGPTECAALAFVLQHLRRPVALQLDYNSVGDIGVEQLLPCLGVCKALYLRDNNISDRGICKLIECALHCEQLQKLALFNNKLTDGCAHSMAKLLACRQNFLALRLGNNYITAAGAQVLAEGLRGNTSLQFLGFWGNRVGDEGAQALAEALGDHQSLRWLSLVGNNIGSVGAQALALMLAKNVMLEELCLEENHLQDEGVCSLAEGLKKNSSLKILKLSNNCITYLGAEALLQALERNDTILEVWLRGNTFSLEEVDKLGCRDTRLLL

The IC50 is the concentration that inhibits the measured activity by half. As to `Nc1nc2ccccc2n1S(=O)(=O)c1ccccc1` [Compound 4], the IC50 in experiment [1] (read-out: TNF-α IC50(μM)) is over 20 µM.
Same read-out and setting: then `Nc1nc2ccccc2n1S(=O)(=O)c1ccc([N+](=O)[O-])cc1` [Compound 5], with over 20 µM; and `Cc1ccc(S(=O)(=O)n2cnc3ccccc32)cc1` [Compound 6], with over 20 µM.
With `Nc1nc2ccccc2n1S(=O)(=O)c1ccc(OC(F)(F)F)cc1` [Compound 11], the 50% inhibitory concentration (IC50) in experiment [2] and in experiment [1] (setting [4]) was over 20 µM in each case.
On to `CC(C)c1ccc(S(=O)(=O)n2c(N)nc3ccccc32)cc1` [Compound 12], for which the IC50 in experiment [2] and in experiment [1] (setting [4]) was over 20 µM each time.
On to `Nc1nc2ccccc2n1S(=O)(=O)c1ccc(F)cc1` [Compound 13], for which the IC50 in experiment [2] and in experiment [1] (setting [4]) was over 20 µM in each case.
Turning to `Nc1nc2ccccc2n1S(=O)(=O)c1ccc(Cl)c(Cl)c1` [Compound 14], the IC50 in experiment [2] and in experiment [1] (setting [4]) was over 20 µM throughout.
Regarding `Nc1nc2ccccc2n1S(=O)(=O)c1cccs1` [Compound 16], the IC50 in experiment [2] was over 25 µM; in experiment [3] it was 11 µM; in experiment [1] (setting [4]), 6.6 µM.
As for `C=CCNC1=C2C[C@@H](C)C[C@H](OC)[C@H](O)[C@@H](C)/C=C(\C)[C@H](OC(N)=O)[C@@H](OC)C=C/C=C(\C)C(=O)NC(=CC1=O)C2=O` [Compound 17-AGG, reference compound], the “Effect on NOD-driven NF-κB reporter gene activity” value in experiment [3] is on record as “suppress”.
On to `Nc1nc2ccccc2n1S(=O)(=O)c1ccc2c(c1)CCC2` [Compound 17], for which the IC50 in experiment [2] was 0.6 µM; in experiment [3] it was 0.8 µM; in experiment [1] (setting [4]), over 25 µM.
The matching figures for `Cc1ccc(S(=O)(=O)n2c(N)nc3cc(C)ccc32)cc1` [Compound 18]: 15 µM, 9.3 µM and over 25 µM.
The matching figures for `Cc1ccc(S(=O)(=O)n2c(N)nc3cc(C(F)(F)F)ccc32)cc1` [Compound 20]: 4.7 µM, 1.6 µM and 2.3 µM.
Regarding `Cc1cccc(S(=O)(=O)n2c(N)nc3ccccc32)c1` [Compound 29], the IC50 was 3.8 µM in experiment [3] and over 100 µM in experiment [1] (setting [4]).
As for `Nc1nc2ccccc2n1S(=O)(=O)c1cccc(Br)c1` [Compound 31], the IC50 is 3.5 µM in experiment [3] and over 100 µM in experiment [1] (read-out: TNF-α IC50(μM)).
Turning to `Nc1nc2ccccc2n1S(=O)(=O)c1cccc(C(F)(F)F)c1` [Compound 32], the values for the IC50 in experiment [3] and in experiment [1] (setting [4]) were 12.4 µM and over 100 µM, respectively.
On to `Nc1nc2ccccc2n1S(=O)(=O)c1cccc(OC(F)(F)F)c1` [Compound 33], for which the IC50 in experiment [3] is over 25 µM; in experiment [1] (setting [4]), over 100 µM.
On to `CCCc1cccc(S(=O)(=O)n2c(N)nc3ccccc32)c1` [Compound 34], for which the IC50 in experiment [3] was 1.3 µM; in experiment [1] (setting [4]), over 100 µM.
As to `CC(C)(C)c1cccc(S(=O)(=O)n2c(N)nc3ccccc32)c1` [Compound 35], the IC50 stood at 3.3 µM in experiment [3] and 15.6 µM in experiment [1] (setting [4]).
Consider `COc1cccc(S(=O)(=O)n2c(N)nc3ccccc32)c1` [Compound 36], for which the values for the IC50 in experiment [3] and in experiment [1] (setting [4]) were 14.5 µM and over 100 µM, respectively.
The matching figures for `Nc1nc2ccccc2n1S(=O)(=O)c1cc(Cl)c(Cl)s1` [Compound 37]: 2.2 µM and 18.4 µM.
In the case of `Nc1nc2ccccc2n1S(=O)(=O)c1ccc(-c2ccccc2)cc1` [Compound 39], the IC50 came out at 1.5 µM in experiment [3] and 4.2 µM in experiment [1] (read-out: TNF-α IC50(μM)).
For the molecule `COc1ccc(-c2ccc(S(=O)(=O)n3c(N)nc4ccccc43)cc2)cc1` [Compound 40], the IC50 in experiment [1] (setting [4]) came to 5.2 µM.
Take `COC1=C2C[C@@H](C)C[C@H](OC)[C@H](O)[C@@H](C)/C=C(\C)[C@H](OC(N)=O)[C@@H](OC)/C=C\C=C(/C)C(=O)NC(=CC1=O)C2=O` [geldanomycin, reference compound]: the “Effect on NOD-driven NF-κB reporter gene activity” value in experiment [3] is listed as “suppress”.
One may read the inhibition as the drop in the measured response relative to a control, in per cent. For `C[n+]1cc2c3c(ccc2c2ccc4cc5c(cc4c21)OCO5)OCO3` [sanguinarine, reference compound], in experiment [3] (HEK-293T, read-out: Luciferase inhibition, hit cut-off), the inhibition at 4 µM was at least 50%.
